Measured values published in the NIST ThermoML archive (doi:10.1016/j.jct.2014.12.011).
Numbers after ± are expanded uncertainties.

Assay: mn = molality of the nth substance listed, in mol/kg
Conditions: 100 kPa, Liquid, Alternating current cell with electrodes

CCCCCCCCCC(=O)[O-].[Na+] [sodium decanoate] + O
electrical conductivity [S/m]
Conditions	278.15 K	288.15 K	298.15 K	308.15 K	318.15 K	328.15 K
m1 = 0.01638	0.0626 ± 0.0007	0.083 ± 0.001	0.106 ± 0.0012	0.131 ± 0.0015	0.157 ± 0.0018	0.184 ± 0.0021
m1 = 0.03189	0.116 ± 0.0012	0.155 ± 0.0016	0.198 ± 0.0021	0.244 ± 0.0025	0.292 ± 0.003	0.344 ± 0.0036
m1 = 0.04823	0.17 ± 0.0017	0.226 ± 0.0023	0.288 ± 0.0029	0.356 ± 0.0036	0.428 ± 0.0044	0.504 ± 0.0051
m1 = 0.06109	0.21 ± 0.0021	0.279 ± 0.0028	0.357 ± 0.0036	0.441 ± 0.0045	0.53 ± 0.0054	0.625 ± 0.0063
m1 = 0.07519	0.2524 ± 0.0025	0.336 ± 0.0034	0.429 ± 0.0043	0.531 ± 0.0054	0.639 ± 0.0064	0.753 ± 0.0076
m1 = 0.09179	0.3003 ± 0.003	0.399 ± 0.004	0.5112 ± 0.0051	0.632 ± 0.0064	0.7605 ± 0.0076	0.896 ± 0.009
m1 = 0.1079	0.344 ± 0.0035	0.459 ± 0.0046	0.584 ± 0.0059	0.719 ± 0.0072	0.865 ± 0.0087	1.021 ± 0.01
m1 = 0.1249	0.388 ± 0.0039	0.5125 ± 0.0051	0.647 ± 0.0065	0.795 ± 0.008	0.958 ± 0.0096	1.135 ± 0.011
m1 = 0.1434	0.429 ± 0.0043	0.559 ± 0.0056	0.705 ± 0.0071	0.869 ± 0.0087	1.05 ± 0.011	1.25 ± 0.013
m1 = 0.1608	0.46 ± 0.0046	0.599 ± 0.006	0.758 ± 0.0076	0.936 ± 0.0094	1.134 ± 0.011	1.35 ± 0.013
m1 = 0.1798	0.489 ± 0.0049	0.6405 ± 0.0064	0.8135 ± 0.0081	1.008 ± 0.01	1.224 ± 0.012	1.46 ± 0.015
m1 = 0.1991	0.519 ± 0.0052	0.6831 ± 0.0068	0.8715 ± 0.0087	1.08 ± 0.011	1.316 ± 0.013	1.57 ± 0.016
m1 = 0.2177	0.547 ± 0.0055	0.724 ± 0.0073	0.927 ± 0.0093	1.15 ± 0.012	1.405 ± 0.014	1.68 ± 0.017
m1 = 0.2366	0.576 ± 0.0058	0.766 ± 0.0077	0.984 ± 0.0099	1.228 ± 0.012	1.5 ± 0.015	1.78 ± 0.018
m1 = 0.2557	0.605 ± 0.0061	0.809 ± 0.0081	1.043 ± 0.01	1.303 ± 0.013	1.59 ± 0.016	1.89 ± 0.019

CCCCCCCCCCCC(=O)[O-].[Na+] [sodium dodecanoate] + O
Conditions	electrical conductivity [S/m]
298.15 K, m1 = 0.01084	0.0726 ± 0.001
298.15 K, m1 = 0.01211	0.0809 ± 0.001
298.15 K, m1 = 0.01337	0.0892 ± 0.0011
298.15 K, m1 = 0.01462	0.0974 ± 0.0012
298.15 K, m1 = 0.01585	0.105 ± 0.0012
298.15 K, m1 = 0.01707	0.113 ± 0.0013
298.15 K, m1 = 0.01827	0.121 ± 0.0014
298.15 K, m1 = 0.01946	0.129 ± 0.0014
298.15 K, m1 = 0.02064	0.136 ± 0.0015
298.15 K, m1 = 0.0218	0.143 ± 0.0016
298.15 K, m1 = 0.02295	0.151 ± 0.0016
298.15 K, m1 = 0.02408	0.158 ± 0.0017
298.15 K, m1 = 0.0252	0.165 ± 0.0018
298.15 K, m1 = 0.02631	0.172 ± 0.0018
298.15 K, m1 = 0.02741	0.178 ± 0.0019
298.15 K, m1 = 0.02849	0.183 ± 0.0019
298.15 K, m1 = 0.02957	0.187 ± 0.0019
298.15 K, m1 = 0.03063	0.1909 ± 0.0019
298.15 K, m1 = 0.03168	0.194 ± 0.002
298.15 K, m1 = 0.03271	0.198 ± 0.002
298.15 K, m1 = 0.03374	0.201 ± 0.002
298.15 K, m1 = 0.03476	0.204 ± 0.0021
298.15 K, m1 = 0.03576	0.207 ± 0.0021
298.15 K, m1 = 0.03675	0.2102 ± 0.0021
308.15 K, m1 = 0.01107	0.0928 ± 0.0012
308.15 K, m1 = 0.01239	0.103 ± 0.0013
308.15 K, m1 = 0.0137	0.114 ± 0.0014
308.15 K, m1 = 0.01499	0.125 ± 0.0015
308.15 K, m1 = 0.01626	0.135 ± 0.0016
308.15 K, m1 = 0.01752	0.145 ± 0.0017
308.15 K, m1 = 0.01876	0.155 ± 0.0018
308.15 K, m1 = 0.01999	0.165 ± 0.0018
308.15 K, m1 = 0.0212	0.175 ± 0.0019
308.15 K, m1 = 0.0224	0.185 ± 0.002
308.15 K, m1 = 0.02359	0.194 ± 0.0021
308.15 K, m1 = 0.02476	0.203 ± 0.0022
308.15 K, m1 = 0.02591	0.212 ± 0.0022
308.15 K, m1 = 0.02706	0.219 ± 0.0023
308.15 K, m1 = 0.02819	0.225 ± 0.0023
308.15 K, m1 = 0.0293	0.231 ± 0.0024
308.15 K, m1 = 0.03041	0.236 ± 0.0024
308.15 K, m1 = 0.0315	0.2405 ± 0.0024
308.15 K, m1 = 0.03257	0.245 ± 0.0025
308.15 K, m1 = 0.03364	0.249 ± 0.0025
308.15 K, m1 = 0.0347	0.254 ± 0.0026
308.15 K, m1 = 0.03574	0.258 ± 0.0026
308.15 K, m1 = 0.03677	0.262 ± 0.0027
308.15 K, m1 = 0.03779	0.266 ± 0.0027
318.15 K, m1 = 0.01302	0.131 ± 0.0016
318.15 K, m1 = 0.01423	0.142 ± 0.0017
318.15 K, m1 = 0.01542	0.154 ± 0.0018
318.15 K, m1 = 0.0166	0.165 ± 0.0019
318.15 K, m1 = 0.01777	0.176 ± 0.002
318.15 K, m1 = 0.01892	0.188 ± 0.0021
318.15 K, m1 = 0.02006	0.198 ± 0.0022
318.15 K, m1 = 0.02118	0.209 ± 0.0023
318.15 K, m1 = 0.02229	0.22 ± 0.0024
318.15 K, m1 = 0.02339	0.23 ± 0.0025
318.15 K, m1 = 0.02448	0.24 ± 0.0026
318.15 K, m1 = 0.02555	0.249 ± 0.0026
318.15 K, m1 = 0.02661	0.258 ± 0.0027
318.15 K, m1 = 0.02766	0.265 ± 0.0027
318.15 K, m1 = 0.0287	0.272 ± 0.0028
318.15 K, m1 = 0.02972	0.278 ± 0.0028
318.15 K, m1 = 0.03074	0.283 ± 0.0029
318.15 K, m1 = 0.03174	0.288 ± 0.0029
318.15 K, m1 = 0.03274	0.293 ± 0.003
318.15 K, m1 = 0.03372	0.298 ± 0.003
318.15 K, m1 = 0.03469	0.303 ± 0.0031
318.15 K, m1 = 0.03565	0.308 ± 0.0031
318.15 K, m1 = 0.0366	0.312 ± 0.0032
318.15 K, m1 = 0.03754	0.317 ± 0.0032
328.15 K, m1 = 0.01297	0.151 ± 0.0019
328.15 K, m1 = 0.01413	0.164 ± 0.002
328.15 K, m1 = 0.01527	0.177 ± 0.0021
328.15 K, m1 = 0.01641	0.189 ± 0.0022
328.15 K, m1 = 0.01752	0.202 ± 0.0023
328.15 K, m1 = 0.01863	0.214 ± 0.0024
328.15 K, m1 = 0.01972	0.226 ± 0.0025
328.15 K, m1 = 0.0208	0.238 ± 0.0026
328.15 K, m1 = 0.02187	0.249 ± 0.0027
328.15 K, m1 = 0.02292	0.26 ± 0.0028
328.15 K, m1 = 0.02397	0.271 ± 0.0029
328.15 K, m1 = 0.025	0.282 ± 0.003
328.15 K, m1 = 0.02602	0.293 ± 0.0031
328.15 K, m1 = 0.02703	0.303 ± 0.0032
328.15 K, m1 = 0.02802	0.311 ± 0.0032
328.15 K, m1 = 0.02901	0.319 ± 0.0033
328.15 K, m1 = 0.02999	0.326 ± 0.0033
328.15 K, m1 = 0.03095	0.332 ± 0.0034
328.15 K, m1 = 0.03191	0.338 ± 0.0034
328.15 K, m1 = 0.03285	0.344 ± 0.0035
328.15 K, m1 = 0.03379	0.35 ± 0.0035
328.15 K, m1 = 0.03471	0.355 ± 0.0036
328.15 K, m1 = 0.03563	0.36 ± 0.0037
328.15 K, m1 = 0.03653	0.366 ± 0.0037
